# Entries after “also recorded” stand apart in the source; their conditions may differ. Like-named read-outs stand apart in the source and are kept apart here.
# Key:
# MC4R V103I [1] = biological target: T1, MC4R V103I (Homo sapiens, UniProt P32245, V103I)
# Target sequence in this assay (P32245 whole entry V103I): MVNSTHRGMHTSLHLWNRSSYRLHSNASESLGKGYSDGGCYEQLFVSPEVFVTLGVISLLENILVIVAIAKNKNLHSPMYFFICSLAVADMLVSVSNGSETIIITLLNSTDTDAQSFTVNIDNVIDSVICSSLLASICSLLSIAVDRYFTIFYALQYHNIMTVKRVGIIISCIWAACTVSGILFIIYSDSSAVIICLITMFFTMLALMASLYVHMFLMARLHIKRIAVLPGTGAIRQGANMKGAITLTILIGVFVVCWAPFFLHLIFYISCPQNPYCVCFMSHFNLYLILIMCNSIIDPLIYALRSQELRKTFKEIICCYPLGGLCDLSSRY
# Protocol: (§5) GS and Gi coupling to the MC4R were determined using the AlphaScreen™ assay (Perkin Elmer Life Science, Boston, MA, USA) performed according to the manufacturer’s protocol and described elsewhere [68]. […] Determination of Gi coupling was investigated by pretreatment with 50 µg/mL PTX 18 h before stimulation. All stimulations were performed at 37 °C and 5% CO2. Incubation was stopped by removing the compounds and lysing the cells in lysis buffer containing IBMX for 1.5–2 h at 4 °C on a shaking platform.
# The determination of cAMP using the AlphaScreen™ assay is a competitive immune assay based on antibody-coupled acceptor beads that bind cAMP and streptavidin-coupled donor beads that bind to a biotinylated cAMP probe. Excitement of the donor bead leads to the conversion of ambient oxygen to a singlet state. In close proximity of donor and acceptor beads through binding the biotinylated probe, the acceptor reacts with the singlet molecule and emits light. Absolute amounts of cAMP are determined by the simultaneous measurement of a cAMP standard. The plate reader (Mithras 940 LB)) was used for the read out, at 565 nm.
# Concentration–response curves of each experiment were analyzed by fitting a non-linear regression model for sigmoidal response in Graph Pad Prism 6 (GraphPad Software Inc., La Jolla, CA, USA) to determine potency (EC50 values). For mutations that had EC50 values outside of concentration tested, it was set to the appropriate highest concentration tested. Signaling bias analysis was performed as described by Kenakin (2017) [69] using the formula (4) Δlog(Emax/EC50) = log(Emaxtest/EC50 test)−log(Emaxref/EC50 ref) with test referring to the tested receptor mutation and ref being reference (MC4R WT). Emax is the maximal response (efficiency) of the mutation, which was determined from the concentration–response curves. Where no Emax could be determined from incomplete curves (e.g., in case of AgRP co-stimulation), the response of the maximal concentration was substituted as has been described by Winpenny et al. (2016) [70].
# MC4R H158R [2] = biological target: T2, MC4R H158R (Homo sapiens, UniProt P32245, H158R)
# Target sequence in this assay (P32245 whole entry H158R): as the sequence (P32245 whole entry V103I) above, with I103V, H158R counted along it
# Protocol: as §5
# (§6) The determination of cAMP using the AlphaScreen™ assay is a competitive immune assay based on antibody-coupled acceptor beads that bind cAMP and streptavidin-coupled donor beads that bind to a biotinylated cAMP probe. Excitement of the donor bead leads to the conversion of ambient oxygen to a singlet state. […] Absolute amounts of cAMP are determined by the simultaneous measurement of a cAMP standard. The plate reader (Mithras 940 LB)) was used for the read out, at 565 nm.
# (§7) Concentration–response curves of each experiment were analyzed by fitting a non-linear regression model for sigmoidal response in Graph Pad Prism 6 (GraphPad Software Inc., La Jolla, CA, USA) to determine potency (EC50 values). […] Emax is the maximal response (efficiency) of the mutation, which was determined from the concentration–response curves. […]
# MC4R H158R [3] = biological target: T2, MC4R H158R; remark: listed apart in the source
# Target sequence in this assay (P32245 whole entry H158R): as the sequence (P32245 whole entry V103I) above, with I103V, H158R counted along it
# Protocol: (§8) Activation of PLC, RhoA and ERK1/2 phosphorylation was determined using luciferase-based reporter gene assays that utilize responsive elements in the promotor region of the gene encoding a firefly luciferase. For PLC activation, the NFAT responsive element (NFAT-luc, pGL4.33) was co-transfected with the receptor mutations. Similarly, co-transfections with SRF responsive element (SRF-luc, pGL4.33, Promega, Mannheim, Germany) for RhoA activation and Serum response element (SRE-luc, pGL3.4, Promega, Mannheim, Germany) for ERK1/2 phosphorylation were performed. […]
# (§9) Measurement of luciferase activity provided information about the activation of the respective second messenger by transferring 10 µL lysate into a white opaque 96-well plate. Injection of 40 µL firefly luciferase substrate (Promega, Mannheim, Germany) and measurement of luminescence was performed with a plate reader (Mithras LB 940).
# as §7
# MC4R WT [4] = biological target: T3, MC4R WT (Homo sapiens, UniProt P32245); details: HEK293, PTX-sensitive cAMP, mean ± SEM, 3 to 7 experiments in triplicates
# Target sequence in this assay (P32245 whole entry): as the sequence (P32245 whole entry V103I) above, with I103V counted along it
# Protocol: (§10) Therefore, in addition to cAMP measurements to assess GS activation in the absence and presence of 100 nM AgRP, we measured Gi/o activation via determination of second messenger (cAMP) modulation by adenylyl cyclase (AC) in the absence or presence of pertussis toxin (PTX) pretreatment. In the presence of PTX, which locks the Gαi/o subunit in its GDP-bound inactivated state, the G protein is no longer able to inhibit the AC to form cAMP [48]. Although this is an indirect way of measuring the contributions from Gi/o signaling to the total amount of intracellular cAMP, we will refer to these measurements as Gi/o coupling in order to simplify the results part.
# (§11) GS and Gi coupling to the MC4R were determined using the AlphaScreen™ assay (Perkin Elmer Life Science, Boston, MA, USA) performed according to the manufacturer’s protocol and described elsewhere [68]. […] Determination of Gi coupling was investigated by pretreatment with 50 µg/mL PTX 18 h before stimulation. […]
# (§12) The determination of cAMP using the AlphaScreen™ assay is a competitive immune assay based on antibody-coupled acceptor beads that bind cAMP and streptavidin-coupled donor beads that bind to a biotinylated cAMP probe. […] Absolute amounts of cAMP are determined by the simultaneous measurement of a cAMP standard. The plate reader (Mithras 940 LB)) was used for the read out, at 565 nm. […]
# MC4R H158R [5] = biological target: T2, MC4R H158R; remark: listed apart in the source
# Target sequence in this assay (P32245 whole entry H158R): as the sequence (P32245 whole entry V103I) above, with I103V, H158R counted along it
# Protocol: as §10, §11, §12
# MC4R V103I [6] = biological target: T1, MC4R V103I; remark: listed apart in the source
# Target sequence in this assay (P32245 whole entry V103I): as the sequence (P32245 whole entry V103I) above
# Protocol: as §8, §9, §7
# MC4R H158R [7] = biological target: T2, MC4R H158R; format: cell-based; parameters: expressed in transfected cells; host or cells: HEK293
# Protocol: (§1) A total of 16–20 h after transfection in 6-well plates, cells were detached, and cell number was adjusted to 2.2 × 10^5 cells/mL in Opti-MEM without phenol red supplemented with 4% FBS. Cells were divided into two pools, adding either the acceptor NanoBRET™ Ligand 618 (1 µL/mL cells of 0.1 mM solution) or the same amount of DMSO as background control. After reseeding 90 µL cell suspension/well into a white 96-well plates, incubation was continued for 4–6 h.
# (§2) For measurements, 25 µL of NanoBRET™ substrate was injected using a plate reader (Mithras LB 940). Donor and acceptor emission were measured at 460 nm and 610 nm, respectively, and the BRET ratio was calculated by dividing acceptor emission by donor emission:(1) BRET ratio =emissionacceptor/emissiondonor
# (§3) The ratio was corrected for background bleed through by subtracting of the background ratio (no acceptor DMSO control) and conversion to milliBRET units (mBU):(2) corrected BRET ratio [mBU]=(BRET ratiosample−BRET rationo acceptor control)×1000
# (§4) To calculate the difference between stimulated and basal interaction, the NET BRET was acquired using the formula:(3) NET BRET = corrected BRET ratiostim− corrected BRET ratiobasal
# Target sequence in this assay (P32245 whole entry H158R): as the sequence (P32245 whole entry V103I) above, with I103V, H158R counted along it
# Target sequence in this assay (P29067 whole entry partner): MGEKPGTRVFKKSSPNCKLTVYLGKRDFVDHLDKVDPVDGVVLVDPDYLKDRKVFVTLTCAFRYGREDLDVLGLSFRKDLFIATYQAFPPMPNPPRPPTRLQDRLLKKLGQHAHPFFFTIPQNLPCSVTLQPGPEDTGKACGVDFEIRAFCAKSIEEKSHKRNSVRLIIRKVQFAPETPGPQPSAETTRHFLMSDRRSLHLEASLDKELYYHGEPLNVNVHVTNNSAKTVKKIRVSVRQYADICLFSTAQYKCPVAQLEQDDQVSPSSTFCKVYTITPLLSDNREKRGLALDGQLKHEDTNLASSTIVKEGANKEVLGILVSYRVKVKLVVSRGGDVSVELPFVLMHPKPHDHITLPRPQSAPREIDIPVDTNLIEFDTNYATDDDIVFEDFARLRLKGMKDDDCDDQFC
# MC4R V103I [8] = biological target: T1, MC4R V103I; format: cell-based; parameters: expressed in transfected cells; host or cells: HEK293; details: HEK293, β-arrestin2, 5 min, mean ± SEM, 3 to 7 experiments in triplicates
# Protocol: as §1, §2, §3, §4
# Target sequence in this assay (P32245 whole entry V103I): as the sequence (P32245 whole entry V103I) above
# Target sequence in this assay (P29067 whole entry partner): as the sequence (P29067 whole entry partner) above
# MC4R WT [9] = biological target: T3, MC4R WT; details: HEK293, SRE-luc, 6 h, mean ± SEM, 3 to 7 experiments in triplicates
# Target sequence in this assay (P32245 whole entry): as the sequence (P32245 whole entry V103I) above, with I103V counted along it
# Protocol: as §8, §9, §7
# MC4R WT [10] = biological target: T3, MC4R WT; details: HEK293, NFAT-luc, 6 h, mean ± SEM, 3 to 7 experiments in triplicates
# Target sequence in this assay (P32245 whole entry): as the sequence (P32245 whole entry V103I) above, with I103V counted along it
# Protocol: as §8, §9, §7
# MC4R WT [11] = biological target: T3, MC4R WT; details: HEK293, SRF-luc, 6 h, mean ± SEM, 3 to 7 experiments in triplicates
# Target sequence in this assay (P32245 whole entry): as the sequence (P32245 whole entry V103I) above, with I103V counted along it
# Protocol: as §8, §9, §7
# MC4R V103I [12] = biological target: T1, MC4R V103I; remark: listed apart in the source
# Target sequence in this assay (P32245 whole entry V103I): as the sequence (P32245 whole entry V103I) above
# Protocol: as §10, §11, §12
# MC4R H158R [13] = biological target: T2, MC4R H158R; remark: listed apart in the source
# Target sequence in this assay (P32245 whole entry H158R): as the sequence (P32245 whole entry V103I) above, with I103V, H158R counted along it
# Protocol: as §8, §9, §7
# MC4R V103I [14] = biological target: T1, MC4R V103I; remark: listed apart in the source
# Target sequence in this assay (P32245 whole entry V103I): as the sequence (P32245 whole entry V103I) above
# Protocol: as §8, §9, §7
# MC4R H158R [15] = biological target: T2, MC4R H158R; remark: listed apart in the source
# Target sequence in this assay (P32245 whole entry H158R): as the sequence (P32245 whole entry V103I) above, with I103V, H158R counted along it
# Protocol: as §8, §9, §7
# MC4R WT [16] = biological target: T3, MC4R WT; test: β-arrestin2 recruitment (NanoBRET), MC4R WT; format: cell-based; parameters: expressed in transfected cells; host or cells: HEK293; details: HEK293, β-arrestin2, 5 min, mean ± SEM, 3 to 7 experiments in triplicates
# Protocol: as §1, §2, §3, §4
# Target sequence in this assay (P32245 whole entry): as the sequence (P32245 whole entry V103I) above, with I103V counted along it
# Target sequence in this assay (P29067 whole entry partner): as the sequence (P29067 whole entry partner) above
# MC4R WT [17] = biological target: T3, MC4R WT; details: HEK293, cAMP, 40 min, IBMX, mean ± SEM, 3 to 7 experiments in triplicates
# Target sequence in this assay (P32245 whole entry): as the sequence (P32245 whole entry V103I) above, with I103V counted along it
# Protocol: as §5, §6, §7
# MC4R WT [18] = test: GS signaling (cAMP) with AgRP co-stimulation, MC4R WT; format: cell-based, human
# Protocol: (§13) Therefore, in addition to cAMP measurements to assess GS activation in the absence and presence of 100 nM AgRP, we measured Gi/o activation via determination of second messenger (cAMP) modulation by adenylyl cyclase (AC) in the absence or presence of pertussis toxin (PTX) pretreatment.
# as §5, §6
# MC4R V103I [19] = biological target: T1, MC4R V103I; remark: listed apart in the source
# Target sequence in this assay (P32245 whole entry V103I): as the sequence (P32245 whole entry V103I) above
# Protocol: as §8, §9, §7
# [20] = tested on: all tested MC4R mutations; test: GS signaling (cAMP) with AgRP, all tested MC4R mutations; details: all tested MC4R mutations and ligands; Figure S1
# Protocol: as §13, §5, §6
# MC4R = details: cited from earlier work
# Source text: The MC4R signals mainly via activation of the stimulating G protein GS, which leads to an increase in intracellular cyclic adenosine-monophosphate (cAMP). In recent years, more and more studies provided evidence that the MC4R is able to couple to a variety of signaling pathways, such as extracellular regulated kinase (ERK) activation, and to other G proteins, such as Gi/o, Gq/11 and G12/13 [10, 11, 12, 13]. These pathways might also be involved in the anorexigenic effect of the activated MC4R [14].
# MC4R H158R [21] = details: 100 nM AgRP
# MC4R V103I [22] = details: synthetic agonist MTII; cited from earlier work
# MC4R V103I [23] = details: agonist α-MSH, 100 nM AgRP
# [24] = HEK293, cAMP, 40 min, IBMX, mean ± SEM, 3 to 7 experiments in triplicates
# [25] = HEK293, SRE-luc, 6 h, mean ± SEM, 3 to 7 experiments in triplicates
# [26] = HEK293, PTX-sensitive cAMP, mean ± SEM, 3 to 7 experiments in triplicates
# [27] = HEK293, SRF-luc, 6 h, mean ± SEM, 3 to 7 experiments in triplicates
# [28] = HEK293, NFAT-luc, 6 h, mean ± SEM, 3 to 7 experiments in triplicates
compound,measurement,setting,value
"CSCC[C@H](NC(=O)[C@H](CCCNC(=N)N)NC(=O)[C@H](Cc1ccc(O)cc1)NC(=O)[C@@H]1CCCN1C(=O)CNC(=O)[C@H](CCC(=O)O)NC(=O)[C@H](CC(=O)O)NC(=O)[C@H](CCCCN)NC(=O)[C@H](CCCCN)NC(=O)[C@H](CCC(=O)O)NC(=O)[C@H](C)N)C(=O)N[C@@H](CCC(=O)O)C(=O)N[C@@H](Cc1c[nH]cn1)C(=O)N[C@@H](Cc1ccccc1)C(=O)N[C@@H](CCCNC(=N)N)C(=O)N[C@@H](Cc1c[nH]c2ccccc12)C(=O)NCC(=O)N[C@@H](CO)C(=O)N1CCC[C@H]1C(=O)N1CCC[C@H]1C(=O)N[C@@H](CCCCN)C(=O)N[C@@H](CC(=O)O)C(=O)O [β-MSH, β-melanocyte stimulating hormone]",GS signaling compared to WT,MC4R V103I [1],reduced (though not significantly); also recorded: tendency towards low GS signaling
same,Emax,MC4R V103I [1]; [24],8.69 fold over WT basal
same,GS signaling compared to WT,MC4R H158R [2],increased GS and Gq/11 signaling
same,Emax,MC4R H158R [2]; [24],14.85 fold over WT basal
same,ERK phosphorylation compared to WT,MC4R H158R [3],augmented ERK phosphorylation
same,Emax,MC4R H158R [3]; [25],5.55 fold over WT basal
same,Emax,MC4R WT [4],26.86 fold over WT basal
same,Gi/o coupling compared to WT,MC4R H158R [5],strong bias towards Gi/o signaling
same,Emax,MC4R H158R [5]; [26],38.55 fold over WT basal
same,G12/13 (RhoA) activation compared to WT,MC4R V103I [6],"strong positive bias towards Gi/o coupling, RhoA activation via G12/13"
same,Emax,MC4R V103I [6]; [27],2.29 fold over WT basal
same,β-arrestin2 recruitment compared to WT,MC4R H158R [7],WT-like activity in G12/13 and β-arrestin2 recruitment
same,Emax,MC4R V103I [8],1.35 fold over WT basal
same,Emax,MC4R WT [9],4.94 fold over WT basal
same,Emax,MC4R WT [10],6.58 fold over WT basal
same,Emax,MC4R WT [11],2.40 fold over WT basal
same,Gi/o coupling compared to WT,MC4R V103I [12],strong positive bias towards Gi/o coupling
same,Emax,MC4R V103I [12]; [26],16.65 fold over WT basal
same,Gq/11 (PLC) activation compared to WT,MC4R H158R [13],increased GS and Gq/11 signaling
same,Emax,MC4R H158R [13]; [28],10.40 fold over WT basal
same,ERK phosphorylation compared to WT,MC4R V103I [14],"tendency towards an ERK signaling bias, which was not significant"
same,Emax,MC4R V103I [14]; [25],5.14 fold over WT basal
same,G12/13 (RhoA) activation compared to WT,MC4R H158R [15],WT-like activity in G12/13 and β-arrestin2 recruitment
same,Emax,MC4R H158R [15]; [27],2.18 fold over WT basal
same,Emax,MC4R WT [16],1.93 fold over WT basal
same,Emax,MC4R WT [17],10.05 fold over WT basal
same,GS signaling in the presence of 100 nM AgRP,MC4R WT [18],not as strongly affected compared to the one of α-MSH
same,Gq/11 (PLC) activation compared to WT,MC4R V103I [19],increased Gq/11 coupling
same,Emax,MC4R V103I [19]; [28],14.65 fold over WT basal
"Agouti-related peptide (SSRRCVRLHESCLGQQVPCCDPCATCYCRFFNAFCYCRKLGTAMNPCSRT; UniProt O00253 83-132, looked up) [AgRP]",effect of AgRP on GS signaling,[20],decreased GS signaling for all tested MC4R mutations and ligands
same,mode of action at MC4R,"MC4R; ref 15, 17",inverse agonist
same,mode of action at MC4R,"MC4R; ref 15, 18",competitive antagonist
same,antagonistic effect of AgRP,MC4R H158R [21]; agonist α-MSH,loss-of-antagonist effect
same,antagonistic effect of AgRP,MC4R H158R [21]; agonist β-MSH,loses its antagonistic effect for this mutation
same,AgRP antagonistic potency,MC4R V103I [22],modestly reduced AgRP antagonistic potency
same,antagonistic effect of AgRP,MC4R V103I [23],"tendency towards a reduced antagonist effect of AgRP, which was, however, not significant; also recorded: tendency towards a decreased antagonistic effect"
